Measured values published in PubChem BioAssay (NCI).
Several values for one entry are separate records, joined by “and”; a condition that tells them apart may be missing. Identical values can stand only once.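 Exposure lasted 48 hours, with cells grown in 96-well plates and compounds tested at five concentrations. GI50 is the concentration that inhibits growth by half. TGI: concentration producing complete growth inhibition.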 Activity calls are given as the source filed them. Rule as the data show it: active = GI50 below about 0.43 µM; inactive = the rest.

Experiments:
Experiment in all cases: DTP human tumour cell line panel, 48 h
[1] = test system: UACC-62 melanoma
[2] = test system: DLD-1 colon
[3] = test system: SK-MEL-28 melanoma
[4] = test system: SNB-75 CNS
[5] = test system: DMS 273 small cell lung
[6] = test system: HCT-15 colon
[7] = test system: LOX IMVI melanoma
[8] = test system: SK-MEL-2 melanoma
[9] = test system: IGROV1 ovarian
[10] = test system: LXFL 529 NSCLC
[11] = test system: COLO 205 colon
[12] = test system: HOP-92 NSCLC
[13] = test system: UO-31 renal
[14] = test system: 786-0 renal
[15] = test system: SK-OV-3 ovarian
[16] = test system: DMS 114 small cell lung
[17] = test system: UACC-257 melanoma
[18] = test system: ACHN renal
[19] = test system: K-562 leukemia
[20] = test system: RPMI-8226 leukemia
[21] = test system: SF-268 CNS
[22] = test system: OVCAR-8 ovarian
[23] = test system: OVCAR-4 ovarian
[24] = test system: MALME-3M melanoma
[25] = test system: NCI-H460 lung
[26] = test system: HOP-18 NSCLC
[27] = test system: SN12C renal
[28] = test system: U251 CNS
[29] = test system: OVCAR-3 ovarian
[30] = test system: SK-MEL-5 melanoma
[31] = test system: KM12 colon
[32] = test system: NCI-H522 lung
[33] = test system: CAKI-1 renal
[34] = test system: XF 498 CNS
[35] = test system: HOP-62 NSCLC
[36] = test system: SW-620 colon
[37] = test system: M19-MEL melanoma
[38] = test system: MOLT-4 leukemia
[39] = test system: M14 melanoma
[40] = test system: HCT-116 colon
[41] = test system: KM20L2 colon
[42] = test system: CCRF-CEM leukemia
[43] = test system: HT29 colon
[44] = test system: SNB-19 CNS
[45] = test system: HL-60(TB) leukemia
[46] = test system: NCI-H23 lung
[47] = test system: TK-10 renal
[48] = test system: A498 renal
[49] = test system: NCI-H226 lung
[50] = test system: A549 NSCLC
[51] = test system: RXF 393 renal
[52] = test system: OVCAR-5 ovarian
[53] = test system: EKVX NSCLC
[54] = test system: HCC-2998 colon
[55] = test system: SF-295 CNS
[56] = test system: SR leukemia
[57] = test system: SF-539 CNS
[58] = test system: SNB-78 CNS

Cc1ccccc1NC(=O)C(=O)c1c(O)c2ccc(O)cc2oc1=O
TGI [1]: > 100 µM
TGI [2]: > 100 µM
TGI [3]: > 100 µM
TGI [4]: > 100 µM
TGI [5]: > 100 µM
TGI [6]: > 100 µM
TGI [7]: > 100 µM
TGI [8]: > 100 µM
TGI [9]: > 100 µM
TGI [10]: > 100 µM
TGI [11]: > 100 µM
TGI [12]: > 100 µM
TGI [13]: > 100 µM
TGI [14]: > 100 µM
TGI [15]: > 100 µM
TGI [16]: > 100 µM
TGI [17]: > 100 µM
TGI [18]: > 100 µM
TGI [19]: > 100 µM
TGI [20]: > 100 µM
TGI [21]: > 100 µM
TGI [22]: > 100 µM
TGI [23]: > 100 µM
TGI [24]: > 100 µM
TGI [25]: > 100 µM
TGI [26]: > 100 µM
TGI [27]: > 100 µM
TGI [28]: > 100 µM
TGI [29]: > 100 µM
TGI [30]: > 100 µM
TGI [31]: > 100 µM
TGI [32]: > 100 µM
TGI [33]: > 100 µM
TGI [34]: > 100 µM
TGI [35]: > 100 µM
TGI [36]: > 100 µM
TGI [37]: > 100 µM
TGI [38]: > 100 µM
TGI [39]: > 100 µM
TGI [40]: > 100 µM
TGI [41]: > 100 µM
TGI [42]: > 100 µM
TGI [43]: > 100 µM
TGI [44]: > 100 µM
TGI [45]: > 100 µM
TGI [46]: > 100 µM
TGI [47]: > 100 µM
TGI [48]: > 100 µM
TGI [49]: > 100 µM
TGI [50]: > 100 µM
TGI [51]: > 100 µM

N/C(=N\N=C/c1c2ccccc2c(Cl)c2ccccc12)NO
GI50 [1]: 1.63 µM
TGI [1]: 4.39 µM and 3.3 µM
TGI [2]: 20.1 µM and 19.1 µM
TGI [3]: 27.6 µM and 27.5 µM
TGI [4]: 25.8 µM and 32 µM
GI50 [52]: 2.54 µM
TGI [52]: 10.2 µM and 8.81 µM
TGI [5]: 3.89 µM
GI50 [6]: 2.57 µM
TGI [6]: 19.4 µM and 6.72 µM
TGI [7]: 12.2 µM
GI50 [8]: 3.61 µM
TGI [8]: 23.3 µM and 16.9 µM
TGI [9]: 15.5 µM and 18.5 µM
GI50 [11]: 3.22 µM
TGI [11]: 14.1 µM and 14.7 µM
GI50 [12]: 10.8 µM
TGI [12]: 12.3 µM and 28.7 µM
GI50 [13]: 2.36 µM
TGI [13]: 22.5 µM and 7.44 µM
GI50 [14]: 5.63 µM
TGI [14]: 26.1 µM and 19.6 µM
TGI [53]: 15.5 µM and 13.5 µM
TGI [15]: 10.5 µM
GI50 [16]: 2.79 µM
TGI [16]: 12.8 µM and 10.2 µM
GI50 [17]: 4.25 µM
TGI [17]: 11.8 µM and 14.6 µM
GI50 [54]: 1.85 µM
TGI [54]: 13.7 µM and 3.97 µM
GI50 [18]: 3.84 µM
TGI [18]: 15.8 µM and 13.8 µM
GI50 [19]: 3.17 µM
TGI [20]: 26.6 µM
outcome [20]: inactive
GI50 [21]: 10.2 µM
TGI [21]: 26 µM and 27.4 µM
GI50 [55]: 13 µM
TGI [55]: 10.4 µM and 26.1 µM
GI50 [22]: 1.99 µM
TGI [22]: 18.9 µM and 4.92 µM
GI50 [23]: 2.62 µM
TGI [23]: 20.4 µM and 15 µM
TGI [24]: 19.4 µM
GI50 [25]: 2.81 µM
TGI [25]: 11 µM and 9.94 µM
TGI [26]: 10.7 µM and 13.9 µM
GI50 [27]: 2.21 µM
TGI [27]: 19.4 µM and 5.58 µM
TGI [28]: 20 µM and 20.6 µM
TGI [29]: 14 µM
GI50 [30]: 2.39 µM
TGI [30]: 16.6 µM and 6.5 µM
outcome [56]: inactive
GI50 [31]: 4.01 µM
TGI [31]: 21.7 µM and 16 µM
GI50 [32]: 1.8 µM
TGI [32]: 14.2 µM and 3.98 µM
TGI [33]: 19.5 µM and 18.5 µM
GI50 [34]: 3.26 µM
TGI [34]: 30.5 µM and 17.1 µM
GI50 [35]: 5.71 µM
TGI [35]: 27.8 µM and 22.9 µM
GI50 [36]: 1.86 µM
TGI [36]: 18 µM and 3.68 µM
GI50 [37]: 5.4 µM
TGI [37]: 19.6 µM and 18.6 µM
TGI [38]: 37.2 µM
outcome [38]: inactive
GI50 [39]: 2.65 µM
TGI [39]: 25.1 µM and 9.47 µM
GI50 [40]: 1.76 µM
TGI [40]: 13.8 µM and 3.36 µM
TGI [41]: 4.81 µM
GI50 [42]: 1.37 µM
TGI [42]: 13.7 µM
GI50 [43]: 2.84 µM
TGI [43]: 15.6 µM and 8.47 µM
GI50 [44]: 7.87 µM
TGI [44]: 24.1 µM and 21.3 µM
GI50 [57]: 8.44 µM
TGI [57]: 21.3 µM and 21.8 µM
TGI [45]: 7.31 µM
GI50 [46]: 6.51 µM
TGI [46]: 17.3 µM and 19.8 µM
TGI [47]: 24.3 µM
TGI [58]: 25.3 µM and 30.5 µM
TGI [48]: 29 µM
TGI [49]: 6.86 µM
GI50 [50]: 2.25 µM
TGI [50]: 11 µM and 5.57 µM
GI50 [51]: 4.61 µM
TGI [51]: 3.5 µM and 17.9 µM
